What was measured:
Format in all cases: cell-based
[1] = tested on: reactive oxygen species (ROS); experiment: Reduced 2',7'-dichlorofluorescein (DCF) diacetate oxidation assay; conditions: 48 h
Description: For measurements of ROS levels, MCF-7 and T47D cells were seeded at 1×10^3 cells in RPMI 1640 supplemented with 10% FBS and treated with 10^-9 - 10^-6 M X15695 for 48 h. Afterwards, cells were loaded with 10 µM) H2DCF-DA (Thermo Fisher Scientific, Karlsruhe, Germany) in phenol red-free medium for 40 min. Cells were subsequently washed with medium and further incubated in medium for 120 min before analysis of fluorescence at 485 nm excitation and 530 nm emission using a multi-well fluorescence reader (SpectraMax iD3, Molecular Devices with SoftMax Pro 7 software, Biberach an der Riss, Germany). After the DCF assay, cells were frozen at -80°C overnight. After thawing, DNA was stained with a Hoechst dye (10 µg/ml final concentration) for 30 min at room temperature and fluorescence was measured at 352 nm excitation and 454 nm emission in a multi-well fluorescence reader (SpectraMax iD3, Molecular Devices with SoftMax Pro 7 software, Biberach an der Riss, Germany). DCF fluorescent intensities were normalized to Hoechst fluorescent intensities.

22Rv.1 = experiment: Clonogenic assay (clonal expansion); conditions: Homo sapiens, 22Rv1; Prostate Cancer (22Rv.1), AR+; inhibition of clonal expansion
Description: (§1) Cells were seeded at a density of 1-2×10^3 cells/well in a 6 well plate in RPMI 1640 supplemented with 10% FBS, penicillin (100 u/ml), streptomycin (100 u/ml), and L-glutamine (2 mM). Cells were treated with increasing concentrations of X15695 and cultured for 14 to 21 days. Medium and compounds were exchanged after 7 days. Cells were fixed with methanol/ acetic acid mixture (3:1 v/v) and the formation of colonies was visualized using 0.5% crystal violet (w/v) in 20% methanol (v/v). Plates were scanned in a conventional office scanner (Epson). The area covered by colonies was calculated using the ColonyArea Plugin for ImageJ.

A549 = experiment: Clonogenic assay (clonal expansion); conditions: A549 (lung)
Description: as §1

DU145 = experiment: Clonogenic assay (clonal expansion); conditions: Homo sapiens, DU-145; Prostate Cancer (DU145), AR-; inhibition of clonal expansion
Description: as §1

HeLa = experiment: Clonogenic assay (clonal expansion); conditions: HeLa (cervical)
Description: as §1

LNCaP = experiment: Clonogenic assay (clonal expansion); conditions: Homo sapiens; Prostate Cancer (LNCaP), AR+; inhibition of clonal expansion
Description: as §1

MCF-7 = experiment: Clonogenic assay (clonal expansion)
Description: as §1

MDA-MB231 = experiment: Clonogenic assay (clonal expansion); conditions: Homo sapiens, MDA-MB-231; Breast Cancer (MDA-MB231), ER-; inhibition of clonal expansion
Description: as §1

PC3 = experiment: Clonogenic assay (clonal expansion); conditions: Homo sapiens; Prostate Cancer (PC3), AR-; inhibition of clonal expansion
Description: as §1

T47D = experiment: Clonogenic assay (clonal expansion); conditions: Homo sapiens; Breast Cancer (T47D), ER+; inhibition of clonal expansion
Description: as §1

TRMCF-7 cells = experiment: Clonogenic assay (clonal expansion)
Description: as §1

U2OS = experiment: Clonogenic assay (clonal expansion); conditions: U2OS (osteosarcoma)
Description: as §1

ZR75-1 = experiment: Clonogenic assay (clonal expansion); conditions: Homo sapiens, ZR-75-1; Breast Cancer (ZR75-1), ER+; inhibition of clonal expansion
Description: as §1

[2] = tested on: AR target gene expression; experiment: Quantitative RT-PCR of AR target genes in LNCaP cells; conditions: 10 nM DHT, 16 h, compared among the six selected imidazopyridines
Description: MCF-7, T47D and LNCaP cells (5×10^4 each) were seeded in 6-well plates and cultured with hormone-depleted medium for 3 days. Subsequently, the MCF-7 and T47D cells were treated with 10 nM 17-β-estradiol (E2) or dihydrotestosterone (DHT) for the LNCaP cells, 1 µM) X15695 (for the MCF-7 and T47D cells) or 5 µM) for LNCaP cells and X15695 together with E2 or DHT. A 1 h pre-treatment with X15695 was performed prior to treatment with E2 or DHT for 16 h. RNA was extracted using innuPREP RNA mini Kit 2.0 (Analytic Jena, Berlin, Germany). 1 µg RNA per sample was used as input material for the RNA sample preparations. Sequencing libraries were generated using NEBNext® UltraTM RNA Library Prep Kit for Illumina® (NEB, USA) following the manufacturer's recommendations and index codes were added to attribute sequences to each sample. The clustering of the index-coded samples was performed on a cBot Cluster Generation System using PE Cluster Kit cBot-HS (Illumina) according to the manufacturer's instructions. After cluster generation, the library preparations were sequenced on an Illumina platform and paired-end reads were generated. Library preparation and sequencing were carried out by Novogene Europe, Cambridge, UK. […] Select target genes were analyzed by RT-PCR experiments with RNA from the samples used for the RNA-seq analysis. […]

In the case of `Fc1ccc(-c2cn3cc(C(F)(F)F)cc(Cl)c3n2)cc1` [Compound X15695, 8-Chloro-2-(4-fluorophenyl)-6-(trifluoromethyl)imidazo[1,2-a]pyridine], the ROS production ([1]; MCF-7 cells) is reported as “significant dose-dependent production of ROS”, the ROS production ([1]; T47D cells) is reported as “not in T47D cells” and the IC50 (22Rv.1) is reported as 0.0402 ± 0.0167 µM. For the same compound, the “effect on clonal expansion” value (A549) was “did not have any effect”, the IC50 (DU145) was 1.34 µM and the “effect on clonal expansion” value (HeLa) was “did not have any effect”. The IC50 (LNCaP) was 0.0141 µM, the IC50 (MCF-7; Homo sapiens, MCF7, Breast Cancer (MCF-7), ER+, inhibition of clonal expansion) was 0.0035 ± 0.0017 µM and the “effect on clonal expansion” value (MCF-7; MCF-7 cells, compared with HeLa, A549 and U2OS) was “dose-dependently inhibited the clonal expansion”. The IC50 (MDA-MB231) was 5.54 µM, the IC50 (PC3) was 2.04 µM and the IC50 (T47D) was 0.0104 ± 0.0028 µM. For the same compound, the “inhibition of clonal expansion” value (TRMCF-7 cells) was “active”, the “effect on clonal expansion” value (U2OS) was “did not have any effect” and the IC50 (ZR75-1) was 0.0073 ± 0.0016 µM. For the same compound, the “attenuation of androgen-induced AR target gene expression” value [2] was “the compound with the most inhibitory activity”.

Source: patent publication EP4417202A1, “ANTI-CANCER ACTION OF BAG1-SELECTIVE IMIDAZOPYRIDINE COMPOUNDS IN STEROID HORMONE RECEPTOR-POSITIVE BREAST AND PROSTATE CANCER” (Karlsruher Institut für Technologie, priority 2023, dated 2024)
